Measured values taken from article PMC11395219 (Molecular Cancer, 2024).

Biological target: T1, Vitamin D receptor (VDR) (Homo sapiens, UniProt P11473)
T1 sequence (P11473 118-427 limits assumed): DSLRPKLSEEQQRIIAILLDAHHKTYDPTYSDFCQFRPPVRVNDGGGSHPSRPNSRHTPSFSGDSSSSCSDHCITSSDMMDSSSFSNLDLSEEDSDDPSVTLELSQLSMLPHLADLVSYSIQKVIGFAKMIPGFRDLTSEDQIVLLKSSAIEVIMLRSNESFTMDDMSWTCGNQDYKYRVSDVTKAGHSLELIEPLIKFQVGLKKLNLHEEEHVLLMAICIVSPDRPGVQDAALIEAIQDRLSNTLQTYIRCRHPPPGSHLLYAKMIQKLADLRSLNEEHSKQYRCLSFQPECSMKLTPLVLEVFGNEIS
Test: SPR
Format: binding

**Q.** Which Kd does the source give for O=c1cc(-c2ccc(O)cc2)oc2c([C@@H]3O[C@H](CO)[C@@H](O)[C@H](O)[C@H]3O)c(O)cc(O)c12 [vitexin] here?
**A.** 34.7 µM
